In patent US7126027B2, “N-[(1-dimethylaminocycloalkyl)methyl]benzamide derivatives” (Akzo Nobel N.V., priority 2002, dated 2006):

tested on: rats; assay: Chung model of neuropathy (L5 spinal nerve ligation, von Frey withdrawal threshold); assay type: in vivo, rat; conditions: twenty minutes after subcutaneous injection; Example 2 20 mg/kg, morphine sulphate 2 mg/kg, gabapentin 50 mg/kg; post-surgery pre-drug 0.8±0.1 g

**Q.** NCC1(CC(=O)O)CCCCC1 [gabapentin] was tested. Which Withdrawal threshold did it give?
**A.** Its Withdrawal threshold is 3.2 ± 1.5 g.

**Q.** With COc1cc(C(=O)NCC2(N(C)C)CCCC2)cc(OC)c1OCc1ccccc1 [Example 2, 4-Benzyloxy-3,5-dimethoxy-N-[1-(dimethylaminocyclopentyl)methyl]benzamide] as the compound, how does the Withdrawal threshold read?
**A.** The Withdrawal threshold was 4.7 ± 1.15 g.

**Q.** How did the Withdrawal threshold turn out when CN1CC[C@]23c4c5ccc(O)c4O[C@H]2[C@@H](O)C=C[C@H]3[C@H]1C5.O=S(=O)(O)O [morphine, morphine sulphate] was run?
**A.** Its Withdrawal threshold is 4.2 ± 1.5 g.

biological target: T1, hGlyT-2 (Homo sapiens, UniProt Q9Y345); assay: Glycine uptake assay, CHO cells stably transfected with hGlyT-2; assay type: cell-based; conditions: [3H]-glycine 30 μM, 37° C., 10 minutes, read-out: Inhibition of glycine transport by hGlyT-2 IC50
T1 construct: expressed in transfected cells
T1 sequence (Q9Y345 1-797): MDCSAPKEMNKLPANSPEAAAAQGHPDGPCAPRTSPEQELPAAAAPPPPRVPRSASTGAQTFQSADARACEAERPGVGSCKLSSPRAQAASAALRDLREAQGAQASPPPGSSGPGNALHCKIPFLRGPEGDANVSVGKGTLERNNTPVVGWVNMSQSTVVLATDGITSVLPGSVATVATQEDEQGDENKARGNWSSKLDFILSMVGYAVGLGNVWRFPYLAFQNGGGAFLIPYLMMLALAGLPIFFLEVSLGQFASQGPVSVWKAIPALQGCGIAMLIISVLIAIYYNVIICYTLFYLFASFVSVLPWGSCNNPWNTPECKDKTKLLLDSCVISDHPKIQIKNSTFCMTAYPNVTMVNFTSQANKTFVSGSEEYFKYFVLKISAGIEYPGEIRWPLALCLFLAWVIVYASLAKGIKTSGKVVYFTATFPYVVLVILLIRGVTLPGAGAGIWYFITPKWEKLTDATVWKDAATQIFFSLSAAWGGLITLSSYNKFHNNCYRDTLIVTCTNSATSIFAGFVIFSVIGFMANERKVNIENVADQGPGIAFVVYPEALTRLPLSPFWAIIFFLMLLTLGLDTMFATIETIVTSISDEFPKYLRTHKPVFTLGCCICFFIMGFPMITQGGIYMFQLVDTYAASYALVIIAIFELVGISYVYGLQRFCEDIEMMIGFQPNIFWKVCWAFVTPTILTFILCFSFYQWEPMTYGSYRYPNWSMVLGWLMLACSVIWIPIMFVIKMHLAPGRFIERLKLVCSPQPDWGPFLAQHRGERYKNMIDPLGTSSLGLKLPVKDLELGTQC
Procedure: Glycine uptake assays were performed as described by Morrow et al. (FEBS Lett. 1998, 439, 334–340) using CHO cells stably transfected with either hGlyT-1b or hGlyT-2. Cells were grown in 96 well microtitre plates (30,000 cells/well) for 24–48 hours before removal of culture medium and addition of Hanks Balanced Salt Solution (HBSS) containing [^3H]-glycine (30 μM) and varying concentrations of test compounds. Plates were incubated at 37° C. for 10 minutes and uptake terminated by washing three times with ice-cold HBSS. After removal of excess liquid, scintillation cocktail was added to each well, prior to counting in a plate counter. Data were analysed using the GraphPad Prism™ analysis package and the sigmoid dose-response curve fitting option to produce IC50 (the concentration of test compound producing 50% inhibition of uptake) values.

**Q.** How did the IC50 turn out when COc1cc(C(=O)NCC2(N(C)C)CCCC2)cc(OC)c1OC(C)c1ccccc1 (stereo not drawn) [Example 11, 3,5-Dimethoxy-4-(1-phenyl)ethoxy-N-[1-(dimethylaminocyclopentyl)methyl]benzamide] was run?
**A.** Its IC50 is 35 nM.

**Q.** COc1cc(C(=O)NCC2(N(C)C)CCCC2)cc(OC)c1OCc1ccc(C)cc1 [Example 10, 3,5-Dimethoxy-4-(4-methylbenzyloxy)-N-[(1-dimethylaminocyclopentyl)methyl]benzamide] was tested. Which IC50 did it give?
**A.** Its IC50 is 30 nM.

**Q.** For COc1cc(C(=O)NCC2(N(C)C)CCCC2)cc(OC)c1OCc1cccc2ccccc12 [Example 19, 3,5-Dimethoxy-4-(1-naphthyl)methoxy-N-[(1-dimethylaminocyclopentyl)methyl]benzamide], which IC50 is on record?
**A.** The IC50 was 215 nM.

**Q.** COc1cc(C(=O)NCC2(N(C)C)CCCCC2)cc(OC)c1OCc1ccccc1 [Example 5, 4-Benzyloxy-3,5-dimethoxy-N-[(1-dimethylaminocyclohexyl)methyl]benzamide] was tested. Which IC50 did it give?
**A.** The IC50 was 84 nM.

**Q.** Cc1cc(C(=O)NCC2(N(C)C)CCCC2)cc(C)c1OCc1ccsc1 [Example 20, 3,5-Dimethyl-4-(3-thienyl)methoxy-N-[(1-dimethylaminocyclopentyl)methyl]benzamide] was tested. Which IC50 did it give?
**A.** The IC50 was 32 nM.

**Q.** COc1cc(C(=O)NCC2(N(C)C)CCCCC2)cc(OC)c1OCC1CCCCC1 [Example 13, 4-(Cyclohexylmethoxy)-3,5-dimethoxy-N-[(1-dimethylaminocyclohexyl)methyl]benzamide] was tested. Which IC50 did it give?
**A.** The IC50 was 71 nM.

**Q.** COc1cc(C(=O)NCC2(N(C)C)CCCC2)cc(OC)c1OCc1ccc(C(F)(F)F)cc1 [Example 14, 3,5-Dimethoxy-4-(4-trifluoromethylbenzyloxy)-N-[(1-dimethylaminocyclopentyl)methyl]benzamide] was tested. Which IC50 did it give?
**A.** Its IC50 is 76 nM.

**Q.** How did the IC50 turn out when CCCCOc1c(OC)cc(C(=O)NCC2(N(C)C)CCCC2)cc1OC [Example 7, 4-n-Butyloxy-3,5-dimethoxy-N-[(1-dimethylaminocyclopentyl)methyl]benzamide] was run?
**A.** Its IC50 is 77 nM.

**Q.** Cc1cc(C(=O)NCC2(N(C)C)CCC2)cc(C)c1OCc1ccccc1 [Example 8, 4-Benzyloxy-3,5-dimethyl-N-[1-(dimethylaminocyclobutyl)methyl]benzamide] was tested. Which IC50 did it give?
**A.** The IC50 was 16 nM.

**Q.** Which IC50 does the source give for COc1cc(C(=O)NCC2(N(C)C)CCCC2)cc(OC)c1OCC(C)C [Example 15, 3,5-Dimethoxy-4-(2-methylpropoxy)-N-[(1-dimethylaminocyclopentyl)methyl]benzamide] here?
**A.** The IC50 was 79 nM.

**Q.** For COc1cc(C(=O)NCC2(N(C)C)CCCC2)cc(OC)c1OCCc1ccccc1 [Example 18, 3,5-Dimethoxy-4-(2-phenylethoxy)-N-[(1-dimethylaminocyclopentyl)methyl]benzamide], which IC50 is on record?
**A.** Its IC50 is 156 nM.

**Q.** Which IC50 does the source give for COc1cc(C(=O)NCC2(N(C)C)CCCC2)cc(OC)c1OC1CCCC1 [Example 21, 4-Cyclopentyloxy-3,5-dimethoxy-N-[(1-dimethylaminocyclopentyl)methyl]benzamide] here?
**A.** Its IC50 is 329 nM.

**Q.** For COc1cc(C(=O)NCC2(N(C)C)CCCC2)cc(OC)c1OCc1ccc(Cl)cc1 [Example 12, 4-(4-Chloro)benzyloxy-3,5-dimethoxy-N-[1-(dimethylaminocyclopentyl)methyl]benzamide], which IC50 is on record?
**A.** The IC50 was 44 nM.

**Q.** How did the IC50 turn out when Cc1cc(C(=O)NCC2(N(C)C)CCCC2)cc(C)c1OCc1ccccc1 [Example 9, 4-Benzyloxy-3,5-dimethyl-N-[(1-dimethylaminocyclopentyl)methyl]benzamide] was run?
**A.** The IC50 was 27 nM.

**Q.** Which IC50 does the source give for Cc1cc(C(=O)NCC2(N(C)C)CCCCCC2)cc(C)c1OCc1ccccc1 [Example 16, 4-Benzyloxy-3,5-dimethyl-N-[(1-dimethylaminocycloheptyl)methyl]benzamide] here?
**A.** The IC50 was 92 nM.
